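Five compound concentrations were applied to cells in 96-well plates for 48 hours; endpoints were derived by simple linear interpolation of the resulting dose-response curve. GI50 = concentration required for 50% inhibition of growth.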 Activity calls are given as the source filed them. Cut-off read from the data, not from the text of the source: active = GI50 up to about 1.1 µM and inactive = higher.
How the values were obtained:
Test in all cases: NCI tumour cell line growth inhibition, 48 h
[1] = tested on: SNB-75
[2] = tested on: SK-MEL-5
[3] = tested on: SF-539
[4] = tested on: M14
[5] = tested on: KM12
[6] = tested on: NCI-H23
[7] = tested on: SNB-19
[8] = tested on: HOP-62
[9] = tested on: CAKI-1
[10] = tested on: HCT-116
[11] = tested on: EKVX
[12] = tested on: DU-145
[13] = tested on: HCC 2998
[14] = tested on: NCI-H522
[15] = tested on: NCI/ADR-RES
[16] = tested on: UACC-62
[17] = tested on: HOP-92
[18] = tested on: UO-31
[19] = tested on: 786-0
[20] = tested on: MOLT-4

Measured: GI50

CC(=O)[C@@H](C)C(=O)N1C(=O)OC[C@@]12[C@@H]1CC[C@@H](C1)C2(C)C
inactive: [1] > 100 µM | [2] > 100 µM | [3] > 100 µM | [4] > 100 µM | [5] > 100 µM | [6] > 100 µM | [7] > 100 µM | [8] > 100 µM | [9] 71.8 µM | [10] > 100 µM | [11] > 100 µM | [12] > 100 µM | [13] > 100 µM | [14] > 100 µM | [15] > 100 µM | [16] > 100 µM | [17] > 100 µM | [18] > 100 µM | [19] > 100 µM

CS(=O)(=O)c1ccc(NNc2cc(=O)[nH]c(=O)[nH]2)cc1
inactive: [1] > 100 µM | [2] > 100 µM | [3] > 100 µM | [4] > 100 µM | [5] > 100 µM | [20] > 100 µM | [6] > 100 µM | [7] > 100 µM | [8] > 100 µM | [9] > 10 µM | [10] > 100 µM | [12] > 100 µM | [13] > 100 µM | [14] 21.7 µM | [15] > 100 µM | [16] > 100 µM | [17] 47.8 µM | [18] > 100 µM | [19] > 100 µM

c1cc(-c2sc(-c3ccncc3)c(-c3ccncc3)c2-c2ccncc2)ccn1
inactive: [1] 14 µM | [2] 14.7 µM | [3] 12.5 µM | [4] 16.5 µM | [5] 26 µM | [20] 12 µM | [6] 16.1 µM | [7] 18.4 µM | [8] 18.5 µM | [9] 36.9 µM | [10] 12.9 µM | [11] 13.1 µM | [12] 23 µM | [13] 3.27 µM | [14] 15.5 µM | [15] 22.9 µM | [16] 14.1 µM | [17] 11.4 µM | [18] 12.6 µM | [19] 14.1 µM

CC1=C(CO)C(=O)O[C@@H]([C@@H](CO)[C@H]2CCC3C4C[C@@H](O)[C@@]5(O)CC=CC(=O)[C@]5(C)C4CC[C@@]32C)C1 (stereo partly drawn)
inactive: [1] 35.6 µM | [2] 51.4 µM | [3] 53.8 µM | [4] 53.7 µM | [5] 43.3 µM | [20] 36.3 µM | [6] 67.9 µM | [7] > 100 µM | [8] 23.5 µM | [9] > 100 µM | [10] 37.2 µM | [11] > 100 µM | [12] > 100 µM | [13] 29.2 µM | [14] 39.2 µM | [15] > 100 µM | [16] 47 µM | [17] 71 µM | [18] 24.4 µM | [19] 28.6 µM

CC(=O)OC(C)(C)CCC(=O)[C@](C)(O)[C@H]1[C@H](O)C[C@@]2(C)[C@@H]3CCc4c(cc(OC5OC(CO)C(O)C(O)C5O)c(O)c4C)C3(C)C(=O)C[C@]12C (stereo partly drawn)
inactive: [1] > 100 µM | [2] > 100 µM | [3] > 100 µM | [4] > 100 µM | [5] > 100 µM | [20] > 100 µM | [6] > 100 µM | [7] > 100 µM | [8] > 100 µM | [9] > 100 µM | [10] > 100 µM | [11] > 100 µM | [12] > 100 µM | [13] > 100 µM | [14] > 100 µM | [15] > 100 µM | [16] > 100 µM | [17] > 100 µM | [18] > 100 µM | [19] > 100 µM

CCCCCCCC(CC(=O)NC(CO)C(=O)NC(CO)CC(C)C)OC(=O)CC(CCCCCCC)OC(=O)CC(CCCCCCC)OC1OC(C)C(O)C(OC2OC(C)C(O)C(O)C2O)C1O (stereo not drawn)
inactive: [1] 10.5 µM | [2] 7.83 µM | [3] 11.7 µM | [4] 5.05 µM | [5] 11.7 µM | [20] 3.06 µM | [6] 14.3 µM | [7] 12.2 µM | [8] 18.9 µM | [9] 18.4 µM | [10] 7.53 µM | [11] 24.6 µM | [12] 12.6 µM | [13] 1.52 µM | [14] 13 µM | [15] 17.9 µM | [16] 14.1 µM | [17] 12 µM | [18] 16.6 µM | [19] 14.3 µM

CC[C@H](C)c1occ2c(O)c(C(=O)O)c(=O)cc-2c1C
inactive: [1] 55.6 µM | [2] 18.3 µM | [3] 20.7 µM | [4] 31.5 µM | [5] 18.5 µM | [20] 19.8 µM | [6] 21.4 µM | [7] 31.7 µM | [8] 24.9 µM | [9] 37.8 µM | [10] 18.8 µM | [11] 30.8 µM | [12] 34.9 µM | [13] 21.1 µM | [14] 14.7 µM | [15] 20.3 µM | [16] 17.3 µM | [17] 21.8 µM | [19] 40.1 µM

Cc1ccccc1S(=O)(=O)Nn1cnc2ccc(S(=O)(=O)Nc3ccc(Cl)cc3)cc2c1=O
inactive: [1] > 100 µM | [3] > 100 µM | [4] 65.9 µM | [5] 12.4 µM | [20] > 100 µM | [6] 60.4 µM | [7] > 100 µM | [8] > 100 µM | [9] > 100 µM | [10] > 100 µM | [11] 35.2 µM | [12] > 100 µM | [13] > 100 µM | [14] > 100 µM | [15] > 100 µM | [16] 27.5 µM | [17] > 100 µM | [18] 18.1 µM | [19] > 100 µM

Cc1nc(=O)[nH]c(NCCNCCO)c1C(=O)Nc1cccc2cc3ccccc3cc12
inactive: [1] > 100 µM | [2] > 100 µM | [3] > 100 µM | [4] > 100 µM | [5] > 100 µM | [20] > 100 µM | [6] > 100 µM | [7] > 100 µM | [8] > 100 µM | [9] > 100 µM | [10] > 100 µM | [11] > 100 µM | [12] > 100 µM | [13] > 100 µM | [14] > 100 µM | [15] > 100 µM | [16] > 100 µM | [17] > 100 µM | [19] > 100 µM

CCOC(=O)c1nc2ccccc2nc1NCc1ccc(OC)cc1
inactive: [1] 48.8 µM | [2] > 100 µM | [3] > 100 µM | [5] 44.6 µM | [20] > 100 µM | [6] > 100 µM | [8] > 100 µM | [9] > 100 µM | [10] 54.8 µM | [11] > 100 µM | [12] > 100 µM | [13] > 100 µM | [14] 56.9 µM | [15] 68.1 µM | [16] 84.1 µM | [17] > 100 µM | [18] > 100 µM | [19] > 100 µM
